Experimental data published in PubChem BioAssay AID1259411 (Chemical Carcinogenesis Research Information System (CCRIS), 2018).
Active and inactive are the calls of the source. The rule behind the calls is not given here.

Tested on: rodent carcinogenicity bioassays, tumor incidence
Test: CCRIS carcinogenicity studies
In short: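 Archive of carcinogenicity, mutagenicity, tumor promotion and tumor inhibition results drawn from journals, NCI reports and other sources, expert-reviewed; covers 1985-2011 and is no longer updated.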

With `CCCCC(CC)COC(=O)c1ccc(C(=O)OCC(CC)CCCC)cc1` (centres undefined) as the compound, how does the carcinogen call (Species: Rat, Strain/Sex: Fischer 344/Female, Route: Oral, Dose: 0, 1500, 6000, 12,000 ppm in diet for 104 wk (average daily dose 0, 102, 418, 901 mg/kg/day), Dose: 0, 1500, 6000, 12,000 ppm in diet for 104 wk (average daily dose 0, 102, 418, 901 mg/kg/day)) read?
Its carcinogen call is “inactive; negative”.

And the carcinogen call (Species: Rat, Strain/Sex: Fischer 344/Male, Route: Oral, Dose: 0, 1500, 6000, 12,000 ppm in diet for 104 wk (average daily dose 0, 79, 324, 666 mg/kg/day), Dose: 0, 1500, 6000, 12,000 ppm in diet for 104 wk (average daily dose 0, 79, 324, 666 mg/kg/day))?
The carcinogen call was “inactive; negative”.

What does the source list for `C#CCO`?
carcinogen call (Species: Mouse, Strain/Sex: B6C3F1/Female (50/Group), Route: Inhalation, Dose: 0, 8, 16, 32 ppm for 6 hr plus 14 min per d, 5 d per wk for 105 wk (Study duration: 105 wk), Dose: 0, 8, 16, 32 ppm for 6 hr plus 14 min per d, 5 d per wk for 105 wk (Study duration: 105 wk), Tumor Site: Type of Lesion: Respiratory epithelium: Adenoma (0/50; 2/50; 4/50; 6/50)): active; positive. conclusions of authors: some evidence of carcinogenic activity.; carcinogen call (Species: Mouse, Strain/Sex: B6C3F1/Male (50/Group), Route: Inhalation, Dose: 0, 8, 16, 32 ppm for 6 hr plus 14 min per d, 5 d per wk for 105 wk (Study duration: 105 wk), Dose: 0, 8, 16, 32 ppm for 6 hr plus 14 min per d, 5 d per wk for 105 wk (Study duration: 105 wk), Tumor Site: Type of Lesion: Respiratory epithelium: Adenoma (0/49; 1/50; 4/50; 7/50), Harderian gland (3/50; 10/50; 6/50; 11/50), Tumor Site: Type of Lesion: Respiratory epithelium: Adenoma (0/49; 1/50; 4/50; 7/50), Harderian gland (3/50; 10/50; 6/50; 11/50)): active; positive. conclusions of authors: some evidence of carcinogenic activity based o; carcinogen call (Species: Rat, Strain/Sex: F344/N / Female (50/Group), Route: Inhalation, Dose: 0, 16, 32, 64 ppm for 6 hr plus 14 min per d, 5 d per wk for 105 wk (Study duration: 105 wk), Dose: 0, 16, 32, 64 ppm for 6 hr plus 14 min per d, 5 d per wk for 105 wk (Study duration: 105 wk), Tumor Site: Type of Lesion: None): inactive; negative. conclusions of authors: no evidence of carcinogenic activity.; carcinogen call (Species: Rat, Strain/Sex: F344/N / Male (50/Group), Route: Inhalation, Dose: 0, 16, 32, 64 ppm for 6 hr plus 14 min per d, 5 d per wk for 105 wk (Study duration: 105 wk), Dose: 0, 16, 32, 64 ppm for 6 hr plus 14 min per d, 5 d per wk for 105 wk (Study duration: 105 wk), Tumor Site: Type of Lesion: Respiratory epithelium: Adenoma (0/49; 0/49; 0/50; 3/49)): inactive; negative (although incidence at highest dose exceeded historical controls). con

With `Cc1ccc(N=Nc2c(O)c(C(=O)O)cc3ccccc23)c(S(=O)(=O)O)c1` as the compound, how does the carcinogen call (Species: MOUSE, Strain/Sex: ICR/FEMALE, Route: DERMAL, Dose: 0, 1 MG IN 0.1 ML DISTILLED WATER 2/WK FOR A MEAN TOTAL DOSE OF 130.6 MG (STUDY DURATION: 18 MO)) read?
The carcinogen call was “inactive; negative”.

And the carcinogen call (Species: MOUSE, Strain/Sex: ICR/MALE, Route: DERMAL, Dose: 0, 1 MG IN 0.1 ML DISTILLED WATER 2/WK FOR A MEAN TOTAL DOSE OF 130.6 MG (STUDY DURATION: 18 MO))?
The carcinogen call was “inactive; negative”.

For `Nc1nnc(-c2ccc([N+](=O)[O-])o2)s1`, which carcinogen call (Species: RAT, Route: ORAL, Tumor Site: Type of Lesion: MAMMARY GLAND) is on record?
The carcinogen call was “active; positive”.

How did the carcinogen call (Species: MONKEY, Strain/Sex: CYNOMOLGUS/FEMALE, Route: ORAL, Dose: 0, 20 MG/WOMAN/D HUMAN DOSE EQUIVALENT IN DIET FOR 36 MONTHS BEGINNING 3 MONTHS POST BILATERAL OVARIECTOMY (STUDY DURATI) turn out when `CC/C(=C(\c1ccccc1)c1ccc(OCCN(C)C)cc1)c1ccccc1` was run?
Its carcinogen call is “inactive; negative”.

And the carcinogen call (Species: MOUSE, Strain/Sex: CD-1/FEMALE, Route: SUBCUTANEOUS, Dose: 0, 1, 2, 5, 10, 25, 50 UG/D ON DAYS 1-5 OF LIFE (STUDY DURATION: 17 MO), Dose: 0, 1, 2, 5, 10, 25, 50 UG/D ON DAYS 1-5 OF LIFE (STUDY DURATION: 17 MO), Tumor Site: Type of Lesion: UTERUS: ADENOCARCINOMA)?
The carcinogen call was “active; positive”.

What about the carcinogen call (Species: Mouse, Strain/Sex: CD-1/Female (30/group), Route: Subcutaneous, Dose: 0, 10 ug as tamoxifen in peanut oil, dosed on days 1-5 of life and retained for 1.5 (4 animals), 3 (4 animals), 6 (4 ani, Dose: 0, 10 ug as tamoxifen in peanut oil, dosed on days 1-5 of life and retained for 1.5 (4 animals), 3 (4 animals), 6 (4 ani, Tumor Site: Type of Lesion: Uterus and ovaries examined) of the same compound?
Its carcinogen call is “inactive; negative”.

What about the carcinogen call (Species: Mouse, Strain/Sex: CD-1/Female (35/group), Route: Subcutaneous, Dose: 0, 5, 10, 25, 50 ug as tamoxifen in peanut oil, dosed on days 1-5 of life and retained for 3 (4 animals), 6 (4 animals),, Dose: 0, 5, 10, 25, 50 ug as tamoxifen in peanut oil, dosed on days 1-5 of life and retained for 3 (4 animals), 6 (4 animals),, Tumor Site: Type of Lesion: Uterus and ovaries examined) of the same compound?
The carcinogen call was “inactive; negative (nonneoplastic changes were observed)”.

And the carcinogen call (Species: RAT, Strain/Sex: ALDERLEY PARK/FEMALE, Route: GAVAGE, Dose: 0, 5, 20, 35 MG/KG/D IN 0.5% HYDROXYPROPYL METHYLCELLULOSE FOR 2 YR (STUDY DURATION: 2 YR), Dose: 0, 5, 20, 35 MG/KG/D IN 0.5% HYDROXYPROPYL METHYLCELLULOSE FOR 2 YR (STUDY DURATION: 2 YR), Tumor Site: Type of Lesion: LIVER: HEPATOCELLULAR ADENOMA, HEPATOCELLULAR CARCINOMA, HEPATO/CHOLANGIOCELLULAR CARCINOMA)?
The carcinogen call was “active; positive”.

What about the carcinogen call (Species: RAT, Strain/Sex: ALDERLEY PARK/MALE, Route: GAVAGE, Dose: 0, 5, 20, 35 MG/KG/D IN 0.5% HYDROXYPROPYL METHYLCELLULOSE FOR 2 YR (STUDY DURATION: 2 YR), Dose: 0, 5, 20, 35 MG/KG/D IN 0.5% HYDROXYPROPYL METHYLCELLULOSE FOR 2 YR (STUDY DURATION: 2 YR), Tumor Site: Type of Lesion: LIVER: HEPATOCELLULAR ADENOMA, HEPATOCELLULAR CARCINOMA, HEPATO/CHOLANGIOCELLULAR CARCINOMA) of the same compound?
The carcinogen call was “active; positive”.

And the carcinogen call (Species: RAT, Strain/Sex: SPRAGUE-DAWLEY/FEMALE, Route: GAVAGE, Dose: 0, 2.8, 11.3, 45.2 MG/KG/D IN CARBOXYMETHYL-CELLULOSE FOR UP TO 1 YR WITH 2 RECOVERY PERIODS, 4 WK OF RECOVERY AFTER 6 M, Dose: 0, 2.8, 11.3, 45.2 MG/KG/D IN CARBOXYMETHYL-CELLULOSE FOR UP TO 1 YR WITH 2 RECOVERY PERIODS, 4 WK OF RECOVERY AFTER 6 M, Tumor Site: Type of Lesion: LIVER: ADENOMA, CARCINOMA)?
The carcinogen call was “active; positive”.

What about the carcinogen call (Species: RAT, Strain/Sex: SPRAGUE-DAWLEY/FEMALE, Route: GAVAGE, Dose: 0, 11.3, 22.6 MG/KG IN 0.5% CARBOXYMETHYLCELLULOSE 1/D 7 D/WK FOR UP TO 12 MO (STUDY DURATION: 15 MO), Dose: 0, 11.3, 22.6 MG/KG IN 0.5% CARBOXYMETHYLCELLULOSE 1/D 7 D/WK FOR UP TO 12 MO (STUDY DURATION: 15 MO), Tumor Site: Type of Lesion: LIVER: HEPATOCELLULAR ADENOMA, HEPATOCELLULAR CARCINOMA) of the same compound?
The carcinogen call was “active; positive”.

What about the carcinogen call (Species: RAT, Strain/Sex: WISTAR/FEMALE, Route: ORAL, Dose: 0, 1 MG/KG BW/D IN PEANUT OIL/LECITHIN/CONDENSED MILK MIXTURE ON DAYS 2-5 OF AGE (STUDY DURATION: 35 MONTHS), Tumor Site: Type of Lesion: UTERUS: ADENOCARCINOMA, VAGINA/CERVIX: SQUAMOUS CELL CARCINOMA) of the same compound?
Its carcinogen call is “active; positive”.

And the carcinogen call (Species: RAT, Strain/Sex: WISTAR/FEMALE, Route: ORAL, Dose: 0, 420 PPM IN DIET FOR 3 MO (STUDY DURATION: LIFETIME), Tumor Site: Type of Lesion: LIVER: TUMOR)?
The carcinogen call was “active; positive”.

Which results are given for `Cn1c(=O)c2[nH]cnc2n(C)c1=O`?
carcinogen call (Species: MOUSE, Strain/Sex: B6C3F1/FEMALE, Route: GAVAGE, Dose: 0, 7.5, 25, 75 MG/KG BW IN CORN OIL 5 D/WK FOR 726 D (STUDY DURATION: 2 YR), Dose: 0, 7.5, 25, 75 MG/KG BW IN CORN OIL 5 D/WK FOR 726 D (STUDY DURATION: 2 YR)): inactive; negative; carcinogen call (Species: MOUSE, Strain/Sex: B6C3F1/MALE, Route: GAVAGE, Dose: 0, 15, 50, 150 MG/KG BW IN CORN OIL 5 D/WK FOR 726 D (STUDY DURATION: 2 YR), Dose: 0, 15, 50, 150 MG/KG BW IN CORN OIL 5 D/WK FOR 726 D (STUDY DURATION: 2 YR)): inactive; negative; carcinogen call (Species: RAT, Strain/Sex: F344/FEMALE, Route: GAVAGE, Dose: 0, 7.5, 25, 75 MG/KG BW IN CORN OIL 5 D/WK FOR 729 D (STUDY DURATION: 2 YR), Dose: 0, 7.5, 25, 75 MG/KG BW IN CORN OIL 5 D/WK FOR 729 D (STUDY DURATION: 2 YR)): inactive; negative; carcinogen call (Species: RAT, Strain/Sex: F344/MALE, Route: GAVAGE, Dose: 0, 7.5, 25, 75 MG/KG BW IN CORN OIL 5 D/WK FOR 729 D (STUDY DURATION: 2 YR), Dose: 0, 7.5, 25, 75 MG/KG BW IN CORN OIL 5 D/WK FOR 729 D (STUDY DURATION: 2 YR)): inactive; negative

For `CCCC[N+](=O)[O-]`, which carcinogen call (Species: RAT, Strain/Sex: F344/MALE, Route: GAVAGE, Dose: 0, 2 MMOL/KG BW 1/WK FOR 50 WK (STUDY DURATION: 83 WK)) is on record?
The carcinogen call was “inactive; negative”.
